In patent US20040259096A1, “Receptor capture assay” (priority 2001, published 2004):

System: AhR
Assay: Receptor capture assay, end-point PCR with anti-DIG time-resolved fluorescence detection, Hepa 1c1c7 cell extract
Type: biochemical, murine
Protocol: End-point PCR may also be utilized for dioxins. Calibrators containing 10, 100, 1000 fmol of 2,3,7,8-tetrachlorodibenzo-p-dioxin (TCDD) were prepared and 1 μl of each calibrator was dispensed into a glass test tube.
An extract from Hepa 1c1c7 cells was prepared as described by Example 1 to provide AhR for the assays. 100 μl NEAT to 0.5 μl of Hepa 1c1c7 cell extract diluted in Assay Buffer was added to each tube, thoroughly mixed, and the tubes were capped, or covered with Parafilm™. The samples were then incubated at room temperature to 37° C. for 30 min to 2 hr. Salt and salmon sperm DNA was then added to the AhR reaction medium in concentrations of 50 mM to 200 mM and 5 to 100 μg/ml, respectively. The samples were then incubated for a period ranging from 0-20 minutes at room temperature. Nucleic acid-tracer (1 nM) was added and mixed gently to allow complex formation between activated AhR and nucleic acid-tracer, where TCCD was present. The reaction tubes were incubated for a time ranging from 10 min to 1 hour, at room temperature.
Capture Strips coated with anti-ARNT antibody were prepared as described in Example 1. An aliquot of AhR reaction medium (25 to 100 μl) from each glass tube was then transferred to a corresponding well of the Capture Strip. The Capture Strips were incubated for an additional 30 min to 1 hour at room temperature, with shaking. Unbound nucleic acid-tracer was rigorously removed by washing wells five times with Wash Buffer B, optionally soaking wells for 30 sec-5 min with wash buffer during each cycle. The strips may be shaken during the soak step if desired. The strips were washed twice with water, with all liquids aspirated at the finish.
The nucleic acid-tracer remaining in the Capture Strip was PCR amplified by the following method: A PCR Master Mix was assembled with the following final concentrations: 1×PCR buffer with 1.5 mM MgCl2, 0.2 mM dATP, dCTP, dGTP, 0.15 mM dTTP, 0.05 mM DIG-dUTP (Roche, Indianapolis, Ind.), 0.5 μM each primer (PRI 1A and PRI 1B), […] Taq polymerase. The Master Mix was aliquoted 30-50 μl per well, then tape applied to seal the wells. The thermocycler profile was: 94° C., 20 sec, 15 cycles of [94° C., 30 sec, 52° C., 30 sec, 72° C. 30 sec], then 72° C., 30 sec and chilled to 4° C.
Ten μl of PCR sample was assayed by ELISA-PCR with anti-DIG detection as follows.
The PCR sample was diluted to 30 μl with water in 0.2 ml tube. The sample was heated 95° C. for 3-5 min. The immobilization (capture) probe was:
The probe was diluted to 10 nM in Hybridization Buffer (0.5× Assay Buffer, 0.5 M NaCl). The probe (100 μl=1 pmol) was then added to the hot samples, mixed, and incubated at 37° C. for 45 min.
The sample was transferred to a pre-washed streptavidin-coated microtiter wells in the form of strips or plates obtained from DELFIA catalog number 4009-0010 (Wallac, Finland) and shaken for 45 min. at room temperature. Strips or plates were washed three times with Wallac Wash Buffer (DELFIA wash concentrate, catalog number 13800865, Wallac, Finland). The Wallac Wash Buffer (1×) for the automated plate washer was made from 25× Wash Concentrate (Wallac), which contains Tris, NaCl, and TWEEN-20.
Anti-DIG antibody (Sigma Chemical Co, St. Louis, Mo.) was diluted 1/1000 in Assay Buffer and 100 μl added to each well, and strips were shaken for 30 min. […] Samples were counted on a Victor 2 multilabel counter/plate reader (catalog number 1420-012, Wallac, Finland) using time-resolved fluorescence. […]

| SMILES | DNA signal over DMSO control (BNF in DMSO added to Hepa 1c1c7 cell extract) | Counts (time-resolved fluorescence) (TCDD 1 fmol) | Counts (time-resolved fluorescence) (TCDD 10 fmol) | Counts (time-resolved fluorescence) (TCDD 100 fmol) | Counts (time-resolved fluorescence) (TCDD 1000 fmol) |
| --- | --- | --- | --- | --- | --- |
| O=c1cc(-c2ccccc2)oc2ccc3ccccc3c12 [BNF, beta-naphthoflavone] | significantly and reproducibly increased the DNA signal |  |  |  |  |
| Clc1cc2c(cc1Cl)Oc1cc(Cl)c(Cl)cc1O2 [TCDD, 2,3,7,8-tetrachlorodibenzo-p-dioxin] |  | 5770 | 17287 | 100645 | 504879 |
